2 molecules from article PMC8621101, “Inhibition of XPO-1 Mediated Nuclear Export through the Michael-Acceptor Character of Chalcones” (Pharmaceuticals, 2021) can be followed below.

Molecules are shown by their SMILES. Several values for one entry are separate records, joined by “and”; a condition that tells them apart may be missing. Equal entries are not always repeated.

One data set deals with Hap-1 cells. Put plainly: Cell proliferation assay (IncuCyte confluence), Hap-1. It counts as cell-based. The settings on record: Homo sapiens, HAP1; Hap-1 chronic myeloid leukemia; 72 h; mean of two independent experiments ± SEM; read-out: IC50 antiproliferative activity Hap-1. On the procedure: (§1) Cancer cell lines HCT-116, NCI-H460, HL-60, K-562 and Z-138 were acquired from the American Type Culture Collection (ATCC, Manassas, VA, USA). The DND-41 cell line was purchased from the Deutsche Sammlung von Mikroorganismen und Zellkulturen (DSMZ Leibniz-Institut, Brunswick, Germany), and the HAP-1 cell line was ordered from Horizon Discovery (Horizon Discovery Group, Water Beach, UK). All cell lines were cultured as recommended by the suppliers. Culture media were purchased from Gibco Life Technologies and supplemented with 10% fetal bovine serum (HyClone, GE Healthcare Life Sciences, Chicago, Illinois, USA).
(§2) Adherent cell lines HCT-116, NCI-H460 and Hap-1 cells were seeded at a density between 500 and 1500 cells per well in 384-well tissue culture plates (Greiner). After overnight incubation, cells were treated with different concentrations of the test compounds. Suspension cell lines HL-60, K-562, Z-138 and DND-41 were seeded at densities ranging from 2500 to 5500 cells per well in 384-well culture plates containing the test compounds at the same concentration points.

The subject of the next data set is HCT-116 cells. Put plainly: Cell proliferation assay (IncuCyte confluence), HCT-116. It counts as cell-based. Particulars: Homo sapiens; HCT-116 colorectal carcinoma; 72 h; mean of two independent experiments ± SEM; read-out: IC50 antiproliferative activity HCT-116. On the procedure: as §1, §2
The subject of another data set is NCI-H460 cells. Put plainly: Cell proliferation assay (IncuCyte confluence), NCI-H460. It counts as cell-based. The settings on record: Homo sapiens; NCI-H460 lung carcinoma; 72 h; mean of two independent experiments ± SEM; read-out: IC50 antiproliferative activity NCI-H460. On the procedure: as §1, §2
For another data set, the system named is DND-41 cells. As to the kind of experiment: Cell proliferation assay (IncuCyte confluence), DND-41. It counts as cell-based. Particulars: DND41; DND-41 acute lymphoblastic leukemia; 72 h; mean of two independent experiments ± SEM; read-out: IC50 antiproliferative activity DND-41. As to the method:
as §1, §2

In another data set the test system is HL-60 cells. Put plainly: Cell proliferation assay (IncuCyte confluence), HL-60. It counts as cell-based. Particulars: Homo sapiens; HL-60 acute myeloid leukemia; 72 h; mean of two independent experiments ± SEM; read-out: IC50 antiproliferative activity HL-60. As to the method:
as §1, §2

The next data set concerns K-562 cells. Put plainly: Cell proliferation assay (IncuCyte confluence), K-562. It counts as cell-based. Particulars: Homo sapiens, K562; K-562 chronic myeloid leukemia; 72 h; mean of two independent experiments ± SEM; read-out: IC50 antiproliferative activity K-562. As to the method: as §1, §2
The subject of the next data set is Z-138 cells. As to the kind of experiment: Cell proliferation assay (IncuCyte confluence), Z-138. Particulars: Homo sapiens; Z-138 non-Hodgkin lymphoma; 72 h; mean of two independent experiments ± SEM; read-out: IC50 antiproliferative activity Z-138. The class given is cell-based. On the procedure:
as §1, §2

Another data set deals with T1, XPO1 (Homo sapiens, UniProt O14980).
T1 construct: the compounds were assayed in a reporter cell line based on the subcellular localization of a XPO1-dependent GFP reporter cargo protein; endogenous in cells; host or cells: HeLa cells stably transfected with the NLSSV40-AcGFP-NESPKI reporter (only the reporter cargo is transfected, not XPO1)
T1 sequence (O14980 whole entry): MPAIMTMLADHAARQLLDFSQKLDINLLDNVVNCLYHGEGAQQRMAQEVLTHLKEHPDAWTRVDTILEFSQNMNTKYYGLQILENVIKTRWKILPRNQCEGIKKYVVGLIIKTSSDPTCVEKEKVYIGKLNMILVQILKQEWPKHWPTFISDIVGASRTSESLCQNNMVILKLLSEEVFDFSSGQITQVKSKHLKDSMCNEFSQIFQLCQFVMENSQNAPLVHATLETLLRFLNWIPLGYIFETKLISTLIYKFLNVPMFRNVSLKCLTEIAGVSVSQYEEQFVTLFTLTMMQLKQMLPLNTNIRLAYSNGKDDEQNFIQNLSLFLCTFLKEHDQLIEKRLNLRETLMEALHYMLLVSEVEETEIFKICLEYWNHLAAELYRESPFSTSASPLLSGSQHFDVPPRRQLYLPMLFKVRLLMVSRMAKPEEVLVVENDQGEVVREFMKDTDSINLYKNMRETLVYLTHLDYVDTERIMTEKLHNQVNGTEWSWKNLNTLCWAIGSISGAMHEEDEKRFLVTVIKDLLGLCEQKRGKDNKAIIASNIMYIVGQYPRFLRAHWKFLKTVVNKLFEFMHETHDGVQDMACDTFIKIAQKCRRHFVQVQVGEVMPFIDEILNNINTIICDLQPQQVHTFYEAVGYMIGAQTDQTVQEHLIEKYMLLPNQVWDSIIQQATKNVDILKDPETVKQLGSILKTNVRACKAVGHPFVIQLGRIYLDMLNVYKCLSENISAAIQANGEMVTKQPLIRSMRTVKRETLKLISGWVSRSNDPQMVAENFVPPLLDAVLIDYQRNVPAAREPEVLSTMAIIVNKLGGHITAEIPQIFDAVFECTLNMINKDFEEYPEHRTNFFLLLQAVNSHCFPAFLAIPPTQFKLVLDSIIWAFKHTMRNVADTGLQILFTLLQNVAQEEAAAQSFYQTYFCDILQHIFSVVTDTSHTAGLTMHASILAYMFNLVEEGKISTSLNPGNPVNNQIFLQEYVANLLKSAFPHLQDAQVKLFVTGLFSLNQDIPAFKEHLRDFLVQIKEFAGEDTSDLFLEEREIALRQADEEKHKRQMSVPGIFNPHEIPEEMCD
Put plainly: XPO1 phenotypic reporter assay in HeLa NLSSV40-AcGFP-NESPKI cells. It counts as cell-based. Particulars: HeLa GFP reporter cell line; 2 h treatment; mean ± SEM of two independent experiments; read-out: XPO1 inhibition IC50. On the procedure: (§3) Stably transfected HeLa NLSSV40-AcGFP-NESPKI were cultured as described in Vercruysse et al.
To study the XPO1-mediated nuclear export, stably transfected HeLa NLSSV40-AcGFP-NESPKI reporter cells were seeded at 8000 cells per well in 96-well all clear tissue culture plates (TPP). After overnight incubation, cells were treated with different doses of compound or solvent (DMSO) for 2 h and then fixed and counterstained with DAPI. Fluorescence was read on an ArrayScan XTI High Content Reader (Thermo Fisher Scientific, Waltham, MA, USA). Nuclear and cytoplasmic compartments were segmented and their average pixel intensities in the green channel were quantitated employing the HCS Studio software. Genedata Screener software was used for dose-response curve fitting, and calculation of EC50 values was based on the percentage of cells having a predominant nuclear localisation (ratio of nuclear to cytoplasmic signal equal or above 1.4) of the reporter construct. Compounds were tested in two independent experiments and represented as mean ± SEM.
Background: A reporter such as luciferase makes a cellular process visible.

In a further data set the target is T2, XPO1 (Jurkat XPO1^WT) (Homo sapiens, UniProt O14980).
T2 construct: RanBP1 immunofluorescence staining was performed on both wild type and mutant XPO1^C528S Jurkat cells; endogenous in cells; host or cells: wild-type Jurkat leukemia cells
Put plainly: RanBP1 immunofluorescence (XPO1-mediated nuclear export) in wild-type Jurkat cells. It counts as cell-based. The settings on record: 3 h; for Subcellular localization of RanBP1, wild-type Jurkat: compound at 4 μM; for IC50: nuclear export of RanBP1 cargo, wild-type Jurkat, mean ± SD of two independent experiments, read-out: IC50 XPO1 inhibition Jurkat XPO1^WT. As to the method: (§4) The effect of the mutation on the activity of the inhibitors was assessed by the visualization of the subcellular localization of the XPO1 cargo RanBP1.
as §3
(§5) Cells were harvested at 400× g, washed in PBS and then transferred into an 8-well µ-Slide (Ibidi) pretreated with 0.1% (w/v) poly-L-lysine (Sigma). Cells were allowed to adhere to the slides and then subsequently fixed (4% PFA in PBS), washed and permeabilized (0.2% Triton X-100 in PBS). Further immunofluorescence staining was then performed according to standard procedures. Employed antibodies were rabbit anti-RanBP1 (ab97659, Abcam, Cambridge, UK) at a 1:500 dilution and secondary Alexa Fluor 488 goat anti-rabbit antibody (A11008, Invitrogen, ThermoFisher Scientific). Cell nuclei were counterstained with DAPI, and the samples were imaged by confocal microscopy on a Leica TCS SP5 confocal microscope (Leica Microsystems, Weitzlar, Germany), employing a HCX PL APO 63× (NA 1.2) water immersion objective. Subsequently, fluorescence was read on an ArrayScan XTI High Content Reader (Thermo Fisher Scientific, Waltham, MA, USA). Nuclear and cytoplasmic compartments were segmented, and their average pixel intensities in the green channel were quantitated similarly as for the XPO1 phenotypic reporter assay.

Data set [1] concerns the target T3, XPO1^C528S (Jurkat XPO1^C528S) (Homo sapiens, UniProt O14980, C528S).
T3 construct: CRISPR/Cas9 genome editing of the Jurkat cell line was performed as in Neggers et al. [43] to generate a XPO1^C528S mutant cell line; endogenous in cells; host or cells: Jurkat cells genome-edited by CRISPR/Cas9 at the XPO1 locus (XPO1^C528S)
As to the kind of experiment: RanBP1 immunofluorescence (XPO1-mediated nuclear export) in mutant XPO1^C528S Jurkat cells. Particulars: for Subcellular localization of RanBP1, mutant XPO1^C528S Jurkat: compound at 4 μM; for Subcellular localization of RanBP1, mutant XPO1^C528S Jurkat / IC50: 3 h; for XPO1 inhibitory activity against Jurkat XPO1^C528S, in words / IC50: mutant XPO1^C528S Jurkat; for IC50: nuclear export of RanBP1 cargo, mean ± SD of two independent experiments, read-out: IC50 XPO1 inhibition Jurkat XPO1^C528S. The class given is cell-based. On the procedure:
as §4, §3, §5

Data set [2] has as its system panel of cancer cell lines. As to the kind of experiment: Antiproliferative activity, panel of cancer cell lines. The class given is cell-based. The settings on record: for Fold less potent than KPT-330 (antiproliferative IC50): all cell lines tested; for Antiproliferative activity, in words: panel of cancer cell lines. As to the method:
as §2

T3 sequence (O14980 whole entry C528S): as the sequence (O14980 whole entry) above, with C528S counted along it

One may read the IC50 as the midpoint of a concentration-inhibition curve. As usually defined, the melting point is the temperature, or range, at which the solid turns liquid. In turn, `COc1cc(OC)cc(C(=O)/C=C/c2cncnc2)c1` [Compound 10, (E)-1-(3′,5′-Dimethoxyphenyl)-3-(pyrimidin-5′’-yl)prop-2-en-1-one] came in with a melting point of 184 to 185 °C. Further, the 50% inhibitory concentration (IC50) in the data set with Hap-1 cells was determined as 2100 ± 200 nM. Moreover, the IC50 with HCT-116 cells turned out to be 4700 ± 1700 nM. For the same molecule, the IC50 in the data set on NCI-H460 cells amounted to 3500 ± 1500 nM. Also, in the data set on DND-41 cells, the IC50 was 1500 ± 200 nM. For the same molecule, the IC50 in the data set with HL-60 cells is 2200 ± 300 nM. Moreover, in the data set on K-562 cells, the IC50 is 7200 ± 1900 nM. Further, the IC50 with Z-138 cells turned out to be 500 ± 50 nM. Moreover, the IC50 at XPO1 was determined as 550 ± 190 nM. In addition, at XPO1 (Jurkat XPO1^WT), the “Subcellular localization of RanBP1, wild-type Jurkat” value was “RanBP1 accumulated in the nucleus” and the IC50 worked out at 300 ± 300 nM. Also, in data set [1], the “Subcellular localization of RanBP1, mutant XPO1^C528S Jurkat” value was “its nuclear export was not inhibited”; the “XPO1 inhibitory activity against Jurkat XPO1^C528S, in words” value is “lost their inhibitory activity”; the IC50 was above 5000 nM. In [2], the “Fold less potent than KPT-330 (antiproliferative IC50)” value is on record as 5- to 30 fold and the “Antiproliferative activity, in words” value is given as “single digit µM IC50 values”.
Regarding `O=C(/C=C/c1cncnc1)c1ccc2ccccc2c1` [Compound 9, (E)-1-(Naphthalen-2-yl)-3-(pyrimidin-5-yl)prop-2-en-1-one], the melting point fell in the range of 175 to 177 °C. The IC50 in the data set with Hap-1 cells was 2300 ± 200 nM. Further, the IC50 with HCT-116 cells was 2400 ± 200 nM. For the same molecule, the IC50 with NCI-H460 cells stood at 2100 ± 100 nM. Besides, the half-inhibitory concentration (IC50) in the data set on DND-41 cells is 2100 ± 500 nM. Further, in the data set on HL-60 cells, the IC50 stood at 2000 ± 500 nM. For the same molecule, the IC50 in the data set on K-562 cells is 1800 ± 80 nM. Also, the IC50 with Z-138 cells amounted to 1800 ± 50 nM. At XPO1, the concentration for half-maximal inhibition (IC50) is 2500 nM and 2460 nM. Also, on XPO1 (Jurkat XPO1^WT), the “Subcellular localization of RanBP1, wild-type Jurkat” value is reported as “RanBP1 accumulated in the nucleus” and the IC50 was 2200 ± 30 nM. In data set [1], the “Subcellular localization of RanBP1, mutant XPO1^C528S Jurkat” value is “its nuclear export was not inhibited”; the “XPO1 inhibitory activity against Jurkat XPO1^C528S, in words” value is listed as “lost their inhibitory activity”; the IC50 is above 5000 nM. In [2], the “Fold less potent than KPT-330 (antiproliferative IC50)” value is reported as 5- to 30 fold and the “Antiproliferative activity, in words” value was “single digit µM IC50 values”.
